This note sets out measurements from patent EP4806898A1, “HETEROARYL DERIVATIVE COMPOUND AND USE THEREOF” (Voronoi Inc., priority 2023, dated 2025).

Each structure is given as a SMILES string.

For one experiment, the target named is T1, recombinant USP1 protein (Homo sapiens, UniProt O94782, DEL125-138/DEL229-408/DEL608-737).
T1 sequence (O94782 with tags, fused parts or gaps DEL125-138/DEL229-408/DEL608-737): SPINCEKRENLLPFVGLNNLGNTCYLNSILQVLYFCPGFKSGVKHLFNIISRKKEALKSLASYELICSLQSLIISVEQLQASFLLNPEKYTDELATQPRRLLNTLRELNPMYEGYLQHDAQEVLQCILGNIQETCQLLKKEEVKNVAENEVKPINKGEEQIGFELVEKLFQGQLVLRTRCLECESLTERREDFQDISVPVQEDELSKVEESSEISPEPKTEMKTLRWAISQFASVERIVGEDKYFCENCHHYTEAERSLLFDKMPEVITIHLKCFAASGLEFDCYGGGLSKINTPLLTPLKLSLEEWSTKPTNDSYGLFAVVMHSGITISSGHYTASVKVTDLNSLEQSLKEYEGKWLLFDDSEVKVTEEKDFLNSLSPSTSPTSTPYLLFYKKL
Kind of experiment: Binding affinity to recombinant USP1 protein by differential scanning fluorimetry. The note with it: compound 100 µM; 0.03 mg/mL USP1 (Δ1-66, Δ125-138, Δ229-408, Δ608-737); Tm with compound minus Tm with DMSO; read-out: ΔTm (°C). The method, then: <Experimental Example 1> Confirmation and evaluation of the binding affinity to recombinant USP1 protein
To evaluate the binding affinity of the compounds of the present invention to the USP1 protein, the following experiment was performed using differential scanning fluorimetry.
Recombinant 0.03 mg/mL USP1 (Δ1-66, Δ125-138, Δ229-408, Δ608-737) protein, dye reagent, and buffer solution (50 mM Tris-HCl pH 8.0, 150 mM NaCl, 2% glycerol, 1 mM DTT) were mixed and 19 µL of the mixture was dispensed into a well plate (MicroAmp Fast 96-Well Reaction plate, 0.1 mL). Each compound was injected at a final concentration of 100 µM in an amount of 1 µL, and the plate containing a total of 20 µL was sealed with MicroAmp Optical Adhesive Film. The melting temperature (Tm) of the protein in each well was measured using a real-time PCR (RT-PCR) device. The difference between the Tm of the sample containing the compound and the Tm containing DMSO is referred to as delta Tm (ΔTm), where a larger ΔTm value indicates stronger binding affinity. The degree of temperature at which the protein is modified in the presence of the compound compared to DMSO was calculated according to Equation 1 below: [formula]

The subject of a further experiment is UWB1.289 cells. The experiment can be described thus: Cell proliferation inhibitory activity in BRCA1/2-mutant or HRD-positive cells (Cell Titer-Glo). Particulars: UWB1289; UWB1.289 cells, 144 hours after compound treatment, Cell Titer-Glo, 1.5 nM to 10 µM; read-out: GI50 UWB1.289 BRCA1 mut. The experiment is classed as cell-based. The method, then: <Experimental Example 2> Evaluation of Cell Proliferation Inhibitory Activity in BRCA1/2-Mutant or HRD-Positive Cells
To evaluate the inhibitory activity of the compound according to the present invention on the proliferation of BRCA1/2 mutants or homologous recombination deficient (HRD) positive cell lines, the following experiments were performed. UWB1.289 cells were cultured in medium (50% MEBM + 50% RPMI1640), and 1,000 cells were seeded in a well plate (black clear bottom 96-well plate, Corning) 16 to 24 hours prior to compound treatment. The compounds were diluted in dimethyl sulfoxide (3-fold serial dilution starting at 10 µM, for a total of 10 concentrations) and injected at 1 µl per well, resulting a final concentration range of […] to 10 µM. Measurements of live cells were performed by a reaction in a 37 °C and CO2 incubator for 144 hours after compound treatment. The cells were incubated for 10 minutes in an incubator using Cell Titer-Glo luminescent cell-viability reagent (Promega), and luminescence intensity thereof was measured using a reader (SynergyNeo2, Biotek). GI50 values were calculated using the GraphPad Prism version 8.4.3 (GraphPad software Inc., San Diego) program.

Turning to `COc1ncnc(C2CC2)c1-c1ncc2cc(C(=O)N3CCN(C4COC4)CC3)n(Cc3ccc(-c4nc(C(F)(F)F)cn4C(C)C)cc3)c2n1` [Example 25, (2-(4-cyclopropyl-6-methoxypyrimid in-5-yl)-7-(4-(1-isopropyl-4-(trifluoromethyl)-1H-imidazol-2-yl)benzyl)-7H-pyrrolo[2,3-d]pyrimidin-6-yl) (4-(oxetan-3-yl)piperazin-1-yl)methanone], the thermal shift (ΔTm) at 100 µM at recombinant USP1 protein is above 5 °C. For the same molecule, the GI50 in the experiment on UWB1.289 cells is below 100 nM.

As for `COc1ncnc(C2CC2)c1-c1ncc2cc(C(=O)N3CCC(N4CCOCC4)CC3)n(Cc3ccc(-c4nc(C(F)(F)F)cn4C(C)C)cc3)c2n1` [Example 14, (2-(4-cyclopropyl-6-methoxypyrimid in-5-yl)-7-(4-(1-isopropyl-4-(trifluoromethyl)-1H-imidazol-2-yl)benzyl)-7H-pyrrolo[2,3-d]pyrimidin-6-yl) (4-morpholinopipe ridin-1-yl)methanone], the shift in melting temperature (ΔTm) at 100 µM at recombinant USP1 protein is above 5 °C. Besides, in the experiment with UWB1.289 cells, the GI50 was below 100 nM.

For `COc1ncnc(C2CC2)c1-c1ncc2cc(C(=O)N[C@H]3CN(C)C[C@@H]3F)n(Cc3ccc(-c4nc(C(F)(F)F)cn4C)cc3)c2n1` [Example 181, 2-(4-cyclopropyl-6-methoxypyrimidin-5-yl)-N-((3S,4S)-4-fluoro-1-methylpyrrolidin-3-yl)-7-(4-(1-methyl-4-(trifluoromethyl)-1H-imidazol-2-yl)benzyl)-7H-pyrrolo[2,3-d]pyrimidine-6-carboxamide], on recombinant USP1 protein, the thermal shift (ΔTm) at 100 µM is above 5 °C. In addition, the concentration for 50% growth inhibition (GI50) in the experiment on UWB1.289 cells was below 100 nM.

Regarding `COc1ncnc(C2CC2)c1-c1ncc2cc(C(=O)NCC(C)(C)O)n(Cc3ccc(-c4nc(C(F)(F)F)cn4C)cc3)c2n1` [Example 205, 2-(4-cyclopropyl-6-methoxypyrimidin-5-yl)-N-(2-hydroxy-2-methylpropyl)-7-(4-(1-methyl-4-(trifluoromethyl)-1H-imidazol-2-yl)benzyl)-7H-pyrrolo[2,3-d]pyrimidine-6-carboxamide], on recombinant USP1 protein, the shift in melting temperature (ΔTm) at 100 µM is above 5 °C. Further, in the experiment with UWB1.289 cells, the GI50 is below 100 nM.

Consider `COc1ncnc(C2CC2)c1-c1ncc2cc(C(=O)NC[C@H](C)OC)n(Cc3ccc(-c4nc(C(F)(F)F)cn4C(C)C)cc3)c2n1` [Example 135, (S)-2-(4-cyclopropyl-6-methoxypyrimidin-5-yl)-7-(4-(1-isopropyl-4-(trifluoromethyl)-1H-imidazol-2-yl)benzyl)-N-(2-methoxypropyl) -7H-pyrrolo[2,3-d]pyrimidine-6-carboxamide], for which the ΔTm at 100 µM on recombinant USP1 protein is above 5 °C. Further, in the experiment with UWB1.289 cells, the GI50 was below 100 nM.

As for `COc1ncnc(C2CC2)c1-c1ncc2cc(C(=O)N3CCN(C)CC3)n(Cc3ccc(-c4nc(C(F)(F)F)cn4C)cc3)c2n1` [Example 170, (2-(4-cyclopropyl-6-methoxypyrimid in-5-yl)-7-(4-(1-methyl-4-(trifluoromethyl)-1H-imidazol-2-yl)benzyl) -7H-pyrrolo[2,3-d]pyrimidin-6-yl) (4-methylpiperazi n-1-yl)methanone], the ΔTm at 100 µM on recombinant USP1 protein is above 5 °C. For the same molecule, the GI50 with UWB1.289 cells lay within 100 to 500 nM.

As for `COc1ncnc(C2CC2)c1-c1ncc2cc(C(=O)NC3(C)COC3)n(Cc3ccc(-c4nc(C(F)(F)F)cn4C(C)C)cc3)c2n1` [Example 104, 2-(4-cyclopropyl-6-methoxypyrimidin-5-yl)-7-(4-(1-isopropyl-4-(trifluoromethyl)-1H-imidazol-2-yl)benzyl)-N-(3-methyloxetan-3-yl)-7H-pyrrolo[2,3-d]pyrimidine-6-carboxamide], the shift in melting temperature (ΔTm) at 100 µM on recombinant USP1 protein is above 5 °C. Besides, in the experiment on UWB1.289 cells, the GI50 was below 100 nM.

In the case of `COc1ncnc(C2CC2)c1-c1ncc2cc(C(=O)N3CC[C@@H](N(C)C)C3)n(Cc3ccc(-c4nc(C(F)(F)F)cn4C(C)C)cc3)c2n1` [Example 39, (R)-(2-(4-cyclopropyl-6-methoxypyrimidin-5-yl)-7-(4-(1-isopropyl-4-(trifluoromethyl)-1H-imidazol-2-yl)benzyl)-7H-pyrrolo[2,3-d]pyrimidin-6-yl) (3-(dimethylamino)pyrrolidin-1-yl)methanone], the ΔTm at 100 µM on recombinant USP1 protein is above 5 °C. Further, in the experiment with UWB1.289 cells, the concentration for 50% growth inhibition (GI50) lay in the range of 100 to 500 nM.

As to `COc1ncnc(C2CC2)c1-c1ncc2cc(C(=O)N3CCN(C)CC3)n(Cc3ccc(-c4nc(C(F)(F)F)cn4C(C)C)cc3)c2n1` [Example 24, (2-(4-cyclopropyl-6-methoxypyrimid in-5-yl)-7-(4-(1-isopropyl-4-(trifluoromethyl)-1H-imidazol-2-yl)benzyl)-7H-pyrrolo[2,3-d]pyrimidin-6-yl) (4-methylpiperazi n-1-yl)methanone], the ΔTm at 100 µM on recombinant USP1 protein was above 5 °C. Moreover, the 50% growth inhibitory concentration (GI50) with UWB1.289 cells was below 100 nM.

For the molecule `COc1ncnc(C2CC2)c1-c1ncc2cc(C(=O)NC3CCN(CC4(F)CC4)CC3)n(Cc3ccc(-c4nc(C(F)(F)F)cn4C(C)C)cc3)c2n1` [Example 133, 2-(4-cyclopropyl-6-methoxypyrimidin-5-yl)-N-(1-((1-fluorocyclopropyl)methyl)piperidin-4-yl)-7-(4-(1-isopropyl-4-(trifluoromethyl)-1H-imidazol-2-yl)benzyl)-7H-pyrrolo[2,3-d]pyrimidine-6-carboxamide], the shift in melting temperature (ΔTm) at 100 µM on recombinant USP1 protein is above 5 °C. Moreover, the GI50 in the experiment with UWB1.289 cells is below 100 nM.

As for `COc1ncnc(C2CC2)c1-c1ncc2cc(C(=O)Nc3nccs3)n(Cc3ccc(-c4nc(C(F)(F)F)cn4C(C)C)cc3)c2n1` [Example 31, 2-(4-cyclopropyl-6-methoxypyrimidin-5-yl)-7-(4-(1-isopropyl-4-(trifluoromethyl)-1H-imidazol-2-yl)benzyl)-N-(thiazol-2-yl)-7H-pyrrolo[2,3-d]pyrimidine-6-carboxamide], at recombinant USP1 protein, the ΔTm at 100 µM is above 5 °C. Besides, the GI50 in the experiment on UWB1.289 cells is 100 to 500 nM.

Regarding `COc1ncnc(C2CC2)c1-c1ncc2cc(C(=O)NCC3CCC3)n(Cc3ccc(-c4nc(C(F)(F)F)cn4C(C)C)cc3)c2n1` [Example 19, N-(cyclobutylmethyl)-2-(4-cyclopropyl-6-methoxypyrimidin-5-yl)-7-(4-(1-isopropyl-4-(trifluoromethyl)-1H-imidazol-2-yl)benzyl)-7H-pyrrolo[2,3-d]pyrimidine-6-carboxamide], the ΔTm at 100 µM on recombinant USP1 protein is above 5 °C. For the same molecule, the GI50 in the experiment on UWB1.289 cells was below 100 nM.

Take `COc1ncnc(C2CC2)c1-c1ncc2cc(C(=O)NCCN3CCN(C)CC3)n(Cc3ccc(-c4nc(C(F)(F)F)cn4C(C)C)cc3)c2n1` [Example 102, 2-(4-cyclopropyl-6-methoxypyrimidin-5-yl)-7-(4-(1-isopropyl-4-(trifluoromethyl)-1H-imidazol-2-yl)benzyl)-N-(2-(4-methylpiperazin-1-yl)ethyl)-7H-pyrrolo[2,3-d]pyrimidine-6-carboxamide]: the shift in melting temperature (ΔTm) at 100 µM on recombinant USP1 protein was above 5 °C. Besides, in the experiment with UWB1.289 cells, the GI50 is below 100 nM.

For `COc1ncnc(C2CC2)c1-c1ncc2cc(C(=O)N[C@H]3CCN(C)[C@H](C)C3)n(Cc3ccc(-c4nc(C(F)(F)F)cn4C)cc3)c2n1` [Example 201, 2-(4-cyclopropyl-6-methoxypyrimidin-5-yl)-N-((2R,4S)-1,2-dimethylpiperidin-4-yl)-7-(4-(1-methyl-4-(trifluoromethyl)-1H-imidazol-2-yl)benzyl)-7H-pyrrolo[2,3-d]pyrimidine-6-carboxamide], on recombinant USP1 protein, the ΔTm at 100 µM was above 5 °C. Further, the GI50 with UWB1.289 cells was below 100 nM.
